Consider 25 compounds from patent publication US10633353B2, “Polymerizable compound, composition, polymer, optically anisotropic body, liquid crystal display element, and organic EL display” (DIC Corporation, priority 2014, dated 2020).

The nature of one data set: Preservation stability of the coating liquid. The data set is classed as physicochemical. To be noted: coating liquid stored for 2 months shielded from light at 0° C.; appearance and GPC. In short, it runs like this: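 Coating liquid stored 2 months at 0° C shielded from light, then graded A–E. Grades rest on visual appearance, change in composition by GPC, and weight ratio of insoluble components to total solids.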
For the compound `C=CC(=O)OCCCCCCOc1ccc(C(=O)Oc2ccc(OCCCCCCOC(=O)C=C)cc2/C=N/Nc2nc3ccccc3s2)cc1` [1-e-70], the Preservation stability entry is “A (No visual change in the appearance of the coating liquid was confirmed. A GPC analysis of the coating liquid confirmed that the change in the composition of the coating liquid was 1% or less.)”.

As to `C=CC(=O)OCCCCCCOc1ccc(C(=O)Oc2ccc3cc(OCCCCCCOC(=O)C=C)ccc3c2/C=N/Nc2nc3ccccc3s2)cc1` [1-e-73], the Preservation stability result was “A (No visual change in the appearance of the coating liquid was confirmed. A GPC analysis of the coating liquid confirmed that the change in the composition of the coating liquid was 1% or less.)”. Still for that read-out and setting: with `C=CC(=O)OCCCOc1ccc(C(=O)Oc2ccc(C(=O)Oc3ccc(OCCCOC(=O)C=C)cc3/C=N/Nc3nc4ccccc4s3)cc2)cc1` [1-eh-71] the entry was “A (No visual change in the appearance of the coating liquid was confirmed. A GPC analysis of the coating liquid confirmed that the change in the composition of the coating liquid was 1% or less.)”; with `C=CC(=O)OCCCCCCOc1ccc(C(=O)Oc2ccc(C(=O)Oc3ccc(OCCCCCCOC(=O)C=C)cc3/C=N/Nc3nc4ccccc4s3)cc2)cc1` [1-eh-72], “A (No visual change in the appearance of the coating liquid was confirmed. A GPC analysis of the coating liquid confirmed that the change in the composition of the coating liquid was 1% or less.)”; with `C=CC(=O)OCCCOc1ccc(C(=O)Oc2ccc3cc(C(=O)Oc4ccc(OCCCOC(=O)C=C)cc4/C=N/Nc4nc5ccccc5s4)ccc3c2)cc1` [1-eh-74], “A (No visual change in the appearance of the coating liquid was confirmed. A GPC analysis of the coating liquid confirmed that the change in the composition of the coating liquid was 1% or less.)”.

In the case of `C=CC(=O)OCCCCCCOc1ccc(OC(=O)c2ccc(OC(=O)c3ccc4cc(OCCCCCCOC(=O)C=C)ccc4c3)cc2)c(/C=N/Nc2nc3ccccc3s2)c1` [1-eh-75], the Preservation stability entry is reported as “A (No visual change in the appearance of the coating liquid was confirmed. A GPC analysis of the coating liquid confirmed that the change in the composition of the coating liquid was 1% or less.)”. Same read-out and setting: the same measure for `C=CC(=O)OCCCCOC1CCC(C(=O)Oc2ccc(OC(=O)C3CCC(OCCCCOC(=O)C=C)CC3)c(/C=N/Nc3nc4ccccc4s3)c2)CC1` (stereo not shown) [1-f-18]: “A (No visual change in the appearance of the coating liquid was confirmed. A GPC analysis of the coating liquid confirmed that the change in the composition of the coating liquid was 1% or less.)”; for `C=CC(=O)OCCCCCCOC1CCC(C(=O)Oc2ccc(OC(=O)C3CCC(OCCCCCCOC(=O)C=C)CC3)c(/C=N/Nc3nc4ccccc4s3)c2)CC1` (stereo not shown) [1-f-19]: “A (No visual change in the appearance of the coating liquid was confirmed. A GPC analysis of the coating liquid confirmed that the change in the composition of the coating liquid was 1% or less.)”. On the same count and under the same terms, the same measure for `C=CC(=O)OCCCCOC(=O)C1CCC(C(=O)OC2CCC(C(=O)Oc3ccc(OC(=O)C4CCC(OC(=O)C5CCC(C(=O)OCCCCOC(=O)C=C)CC5)CC4)c(/C=N/Nc4nc5ccccc5s4)c3)CC2)CC1` (stereo not shown) [1-f-20]: “A (No visual change in the appearance of the coating liquid was confirmed. A GPC analysis of the coating liquid confirmed that the change in the composition of the coating liquid was 1% or less.)”; for `C=CC(=O)OCCCCCCOC1CCC(C(=O)Oc2ccc(OC(=O)C3CCC(OCCCCCCOC(=O)C=C)CC3)c(/C=N/N(c3ccccc3)c3ccccc3)c2)CC1` (stereo not shown) [1-f-21]: “A (No visual change in the appearance of the coating liquid was confirmed. A GPC analysis of the coating liquid confirmed that the change in the composition of the coating liquid was 1% or less.)”; for `C=CC(=O)OCCCCOC(=O)C1CCC(C(=O)OC2CCC(C(=O)Oc3ccc(OC(=O)C4CCC(OC(=O)C5CCC(C(=O)OCCCCOC(=O)C=C)CC5)CC4)c(/C=N/Nc4nc5ccc6ccccc6c5s4)c3)CC2)CC1` (stereo not shown) [1-f-22]: “A (No visual change in the appearance of the coating liquid was confirmed. A GPC analysis of the coating liquid confirmed that the change in the composition of the coating liquid was 1% or less.)”. The same measure, in the same setting: the same measure for `C=CC(=O)OCCCCOC(=O)C1CCC(OC(=O)C2CCC(C(=O)Oc3ccc(OC(=O)C4CCC(C(=O)OC5CCC(C(=O)OCCCCOC(=O)C=C)CC5)CC4)c(/C=N/Nc4nc5ccccc5s4)c3)CC2)CC1` (stereo not shown) [1-f-95]: “A (No visual change in the appearance of the coating liquid was confirmed. A GPC analysis of the coating liquid confirmed that the change in the composition of the coating liquid was 1% or less.)”; for `C=CC(=O)OCCCCOC(=O)C1CCC(C(=O)OC2CCC(C(=O)Oc3ccc(OC(=O)C4CCC(OC(=O)C5CCC(C(=O)OCCCCOC(=O)C=C)CC5)CC4)c(/C=N/N(CCCCCC)c4nc5ccccc5s4)c3)CC2)CC1` (stereo not shown) [1-f-97]: “A (No visual change in the appearance of the coating liquid was confirmed. A GPC analysis of the coating liquid confirmed that the change in the composition of the coating liquid was 1% or less.)”.

As to `C=CC(=O)OCCCCOC(=O)C1CCC(C(=O)OC2CCC(C(=O)Oc3ccc(OC(=O)C4CCC(OC(=O)C5CCC(C(=O)OCCCCOC(=O)C=C)CC5)CC4)c(/C=N/N(CCCCC)c4nc5ccccc5s4)c3)CC2)CC1` (stereo not shown) [1-f-98], the Preservation stability result was “A (No visual change in the appearance of the coating liquid was confirmed. A GPC analysis of the coating liquid confirmed that the change in the composition of the coating liquid was 1% or less.)”.

`C=CC(=O)OCCCCOC(=O)C1CCC(C(=O)OC2CCC(C(=O)Oc3ccc(OC(=O)C4CCC(OC(=O)C5CCC(C(=O)OCCCCOC(=O)C=C)CC5)CC4)c(/C=N/N(CCCC)c4nc5ccccc5s4)c3)CC2)CC1` (stereo not shown) [1-f-99]: the Preservation stability entry is on record as “A (No visual change in the appearance of the coating liquid was confirmed. A GPC analysis of the coating liquid confirmed that the change in the composition of the coating liquid was 1% or less.)”. The same measure, in the same setting: the same measure for `C=CC(=O)OCCCCOC(=O)C1CCC(C(=O)OC2CCC(C(=O)Oc3ccc(OC(=O)C4CCC(OC(=O)C5CCC(C(=O)OCCCCOC(=O)C=C)CC5)CC4)c(/C=N/N(CCC)c4nc5ccccc5s4)c3)CC2)CC1` (stereo not shown) [1-f-100]: “A (No visual change in the appearance of the coating liquid was confirmed. A GPC analysis of the coating liquid confirmed that the change in the composition of the coating liquid was 1% or less.)”. On the same count and under the same terms, the same measure for `C=CC(=O)OCCCCOC(=O)C1CCC(C(=O)OC2CCC(C(=O)Oc3ccc(OC(=O)C4CCC(OC(=O)C5CCC(C(=O)OCCCCOC(=O)C=C)CC5)CC4)c(/C=N/N(CCC)c4nc5ccccc5s4)c3)CC2)CC1` (stereo not shown) [1-f-101]: “A (No visual change in the appearance of the coating liquid was confirmed. A GPC analysis of the coating liquid confirmed that the change in the composition of the coating liquid was 1% or less.)”; for `C=CC(=O)OCCCCOC(=O)C1CCC(C(=O)OC2CCC(C(=O)Oc3ccc(OC(=O)C4CCC(OC(=O)C5CCC(C(=O)OCCCCOC(=O)C=C)CC5)CC4)c(/C=N/N(CC)c4nc5ccccc5s4)c3)CC2)CC1` (stereo not shown) [1-f-102]: “A (No visual change in the appearance of the coating liquid was confirmed. A GPC analysis of the coating liquid confirmed that the change in the composition of the coating liquid was 1% or less.)”; for `C=CC(=O)OCCCCOC(=O)C1CCC(C(=O)OC2CCC(C(=O)Oc3ccc(OC(=O)C4CCC(OC(=O)C5CCC(C(=O)OCCCCOC(=O)C=C)CC5)CC4)c(/C=N/N(C)c4nc5ccccc5s4)c3)CC2)CC1` (stereo not shown) [1-f-103]: “A (No visual change in the appearance of the coating liquid was confirmed. A GPC analysis of the coating liquid confirmed that the change in the composition of the coating liquid was 1% or less.)”. On the same count and under the same terms, the same measure for `C=CC(=O)Oc1ccc(C(=O)Oc2ccc(OC(=O)c3ccc(OC(=O)C=C)cc3)c(/C=N/Nc3nc4ccccc4s3)c2)cc1` [1-g-35]: “B (No visual change in the appearance of the coating liquid was confirmed. A GPC analysis of the coating liquid confirmed that the change in the composition of the coating liquid was 2% or less.)”.

For the compound `C=CC(=O)OCCCCCCOc1ccc(C(=O)Oc2ccc(-c3ccc(OC(=O)c4ccc(OCCCCCCOC(=O)C=C)cc4)c(/C=N/Nc4nc5ccccc5s4)c3)cc2)cc1` [1-hk-84], the Preservation stability result is “A (No visual change in the appearance of the coating liquid was confirmed. A GPC analysis of the coating liquid confirmed that the change in the composition of the coating liquid was 1% or less.)”. Still for that read-out and setting: with `C=CC(=O)OCCCCCCOc1ccc(C(=O)Oc2ccc(-c3ccc(OC(=O)c4ccc(OCCCCCCOC(=O)C=C)cc4)cc3/C=N/Nc3nc4ccccc4s3)cc2)cc1` [1-hk-85] the entry was “A (No visual change in the appearance of the coating liquid was confirmed. A GPC analysis of the coating liquid confirmed that the change in the composition of the coating liquid was 1% or less.)”. On the same count and under the same terms, the same measure for `C=CC(=O)OCCCCCCOc1ccc(C(=O)Oc2ccc(-c3ccc(OC(=O)c4ccc(OCCCCCCOC(=O)C=C)cc4)cc3C=NN=C3c4ccccc4-c4ccccc43)cc2)cc1` [1-hk-86]: “A (No visual change in the appearance of the coating liquid was confirmed. A GPC analysis of the coating liquid confirmed that the change in the composition of the coating liquid was 1% or less.)”. Same read-out and setting: the same measure for `C=CC(=O)OCCCOC(=O)/C=C/c1ccc(C(=O)Oc2ccc(OC(=O)c3ccc(/C=C/C(=O)OCCCOC(=O)C=C)cc3OC)c(/C=N/Nc3nc4ccccc4s3)c2)c(OC)c1` [1-j-57]: “B (No visual change in the appearance of the coating liquid was confirmed. A GPC analysis of the coating liquid confirmed that the change in the composition of the coating liquid was 2% or less.)”; for `C=CC(=O)OCCCOC(=O)/C=C/c1ccc(C(=O)Oc2ccc(OC(=O)c3ccc(/C=C/C(=O)OCCCOC(=O)C=C)cc3)c(/C=N/Nc3nc4ccccc4s3)c2)cc1` [1-j-61]: “B (No visual change in the appearance of the coating liquid was confirmed. A GPC analysis of the coating liquid confirmed that the change in the composition of the coating liquid was 2% or less.)”.

The same data set, now with this note: summary in words.
As to `C=CC(=O)OCCCCCCOc1ccc(C(=O)Oc2ccc(-c3ccc(OC(=O)c4ccc(OCCCCCCOC(=O)C=C)cc4)c(/C=N/Nc4nc5ccccc5s4)c3)cc2)cc1` [1-hk-84], the Preservation stability result was “high”. The same measure, in the same setting: with `C=CC(=O)OCCCCCCOc1ccc(C(=O)Oc2ccc(-c3ccc(OC(=O)c4ccc(OCCCCCCOC(=O)C=C)cc4)cc3/C=N/Nc3nc4ccccc4s3)cc2)cc1` [1-hk-85] the entry was “high”; with `C=CC(=O)OCCCCCCOc1ccc(C(=O)Oc2ccc(-c3ccc(OC(=O)c4ccc(OCCCCCCOC(=O)C=C)cc4)cc3C=NN=C3c4ccccc4-c4ccccc43)cc2)cc1` [1-hk-86], “high”.
